Earlier results as cited in patent US20170304500A1, “MICROFABRICATED TISSUE SCAFFOLDS AND METHODS OF MAKING AND USING THE SAME” (TARA BIOSYSTEMS INC., priority 2014, published 2017).

Tested on: artery and vein
Settings: released from hydrogel; reported in PNAS; cited from earlier work

Q: With “thymosin Beta-4: peptide controllably released from a hydrogel (SDKPDMAEIEKFDKSKLKKTETQEKNPLPSKETIEQEKQAGES; Thymosin beta-4 released from hydrogel; UniProt P62328 2-44, looked up)” as the substance, how does the angiogenesis read?
A: The angiogenesis was “stimulated angiogenesis”.
